{"source": "BindingDB's records for patent US11466047", "about": "(Merck Sharp & Dohme, 2022)", "molecular_target": "T1, Stimulator of interferon genes protein [R71H,G230A,H232R,R293Q] (Homo sapiens, UniProt Q86WV6, G230A/H232R/R293Q/R71H)", "T1 construct": "gene STING1", "T1 sequence (Q86WV6 whole entry R71H/G230A/H232R/R293Q, looked up)": "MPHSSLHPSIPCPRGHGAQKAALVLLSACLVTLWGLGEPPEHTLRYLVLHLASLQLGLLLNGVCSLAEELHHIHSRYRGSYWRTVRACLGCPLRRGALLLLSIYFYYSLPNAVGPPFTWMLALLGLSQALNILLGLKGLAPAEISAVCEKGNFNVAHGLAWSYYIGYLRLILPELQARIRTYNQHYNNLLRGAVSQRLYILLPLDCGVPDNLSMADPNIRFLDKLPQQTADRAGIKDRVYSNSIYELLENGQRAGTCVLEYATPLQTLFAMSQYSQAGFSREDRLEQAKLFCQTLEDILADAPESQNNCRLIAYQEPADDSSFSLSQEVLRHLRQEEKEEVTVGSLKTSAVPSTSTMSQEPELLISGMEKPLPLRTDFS", "assay": "3H-cGAMP Filtration Binding Assay", "method": "The compounds were serially titrated by the Hamilton STARPlus CORE in a 96-well plate (Greiner, #651201) using a 1:3 ten-point dose response format. After compound preparation, a 2.2 ug/ml working concentration of STING membrane (SEQ. ID. No. 1) was prepared by diluting concentrated membrane into assay buffer (lx PBS; Invitrogen #SH30028.02) and douncing 7× using a manual tissue homogenizer (Wheaton, #357546). 148 uL of prepared membrane was then manually added to each well of a 96-well deep-well polypropylene plate (Fisher Scientific, #12-566-121). Following membrane addition, 2 uL of either titrated test compound, DMSO control (Sigma #276855), or cold cGAMP control was added to the appropriate wells using a BIOMEK FX. Compound and membrane then preincubated for 60 min at RT to allow compound binding to equilibrate. Following equilibration, 8 nM of [3H]c-GAMP ligand was prepared by diluting into assay buffer, and 50 uL of this working stock was then manually added to each well of the assay plate. Plates were then incubated at RT for 60 min, and the contents of each assay plate were then filtered through a 96-well GF/B filter plate (PerkinElmer, #6005250) using a TOMTEC MACH III Cell Harvester equipped with 20 mM HEPES buffer (Fisher Scientific, #BP299500). […] Tritium levels for each reaction well were then measured using a PerkinElmer TopCount plate reader.", "data": [{"smiles": "Nc1nc2c(ncn2[C@@H]2O[C@@H]3COP(=S)(S)O[C@H]4[C@H](F)[C@H](n5cnc6c(=O)[nH]cnc65)O[C@@H]4COP(O)(=S)O[C@@H]2[C@@H]3F)c(=O)[nH]1", "note": "(stereo partly specified) [US11466047, Example 27]", "values": [{"measurement": "EC50", "value": "< 1", "unit": "nM"}]}]}
